Laboratory results as given in patent US20090105212A1, “NOVEL ADENINE COMPOUND” (priority 2005, published 2009).

Biological target: T1, Human TLR7 (Homo sapiens, UniProt Q9NYK1)
T1 construct: expressed in transfected cells; host or cells: HEK293 (hTLR7/seap-293)
T1 sequence (Q9NYK1 27-1049): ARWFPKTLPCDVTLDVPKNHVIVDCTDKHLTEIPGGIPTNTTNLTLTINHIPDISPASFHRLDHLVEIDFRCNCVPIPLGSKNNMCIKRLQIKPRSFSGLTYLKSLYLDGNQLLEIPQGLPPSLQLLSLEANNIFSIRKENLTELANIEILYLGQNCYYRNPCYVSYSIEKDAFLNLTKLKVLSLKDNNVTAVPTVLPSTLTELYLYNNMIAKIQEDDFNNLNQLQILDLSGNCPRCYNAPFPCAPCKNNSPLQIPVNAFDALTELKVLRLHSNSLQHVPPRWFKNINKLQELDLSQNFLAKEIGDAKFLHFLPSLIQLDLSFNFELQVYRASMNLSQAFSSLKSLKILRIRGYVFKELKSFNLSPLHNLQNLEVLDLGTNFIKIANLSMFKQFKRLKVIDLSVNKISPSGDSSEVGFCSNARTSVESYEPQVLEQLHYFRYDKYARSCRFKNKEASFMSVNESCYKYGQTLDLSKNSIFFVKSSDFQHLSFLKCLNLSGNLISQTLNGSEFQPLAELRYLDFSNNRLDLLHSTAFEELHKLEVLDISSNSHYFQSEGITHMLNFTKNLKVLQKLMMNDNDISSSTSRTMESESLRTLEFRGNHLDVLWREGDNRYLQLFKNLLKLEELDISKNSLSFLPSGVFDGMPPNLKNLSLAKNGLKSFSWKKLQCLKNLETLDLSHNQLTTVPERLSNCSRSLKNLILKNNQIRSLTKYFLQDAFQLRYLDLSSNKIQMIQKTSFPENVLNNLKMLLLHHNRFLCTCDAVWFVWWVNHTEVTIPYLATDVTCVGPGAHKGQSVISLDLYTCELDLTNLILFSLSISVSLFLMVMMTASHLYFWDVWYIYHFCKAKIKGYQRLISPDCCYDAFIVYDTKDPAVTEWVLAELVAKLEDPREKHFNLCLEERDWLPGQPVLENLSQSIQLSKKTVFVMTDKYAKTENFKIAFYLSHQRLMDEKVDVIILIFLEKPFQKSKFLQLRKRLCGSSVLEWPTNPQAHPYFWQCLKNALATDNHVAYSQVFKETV
Experiment: Human TLR7 reporter assay (NF-kB-SEAP, HEK293 cells)
Type: cell-based
Details: hTLR7/seap-293 cells (HEK293, NF-kB-SEAP reporter), 20 hours incubation, 1 nM-10 μM, absorbance 405 nm; read-out: human TLR7 binding activity (EC50)
Protocol: Human TLR7 Reporter Assay
Human TLR7 or rat TLR7 plasmid and reporter plasmid (NF-kB-SEAP) stably-induced HEK293 cells were suspended in DMEM media (10% […], 1% NEAA, 10 ug/mL blastocidin S HCl, 100 ug/mL Zeocin), and the suspension was seeded in 90 μl/well on 96 well plate (hTLR7/seap-293:20000 cells/well, rTLR7/seap-293:25000 cells/well).
To the cells seeded on 96 well plate was added in 10 μl/well a test compound wherein DMSO stock solution (2 μl) was hundredfold diluted with medium (200 μl) (final concentration; 1 nM-10 μM, common ratio 3). The mixture was stirred tapping in the side of the plate, and then incubated for 20 hours in CO2 incubator. To the cells stimulated by a test compound was added a substrate for reporter assay (substrate for SEAP, pNPP) by 50 μl/well. 10 minutes after the addition of substrate, a quenching solution (4N NaOH) was added by 50 μl/well, and the enzymatic reaction was quenched. Top seal A was attached on the plate, and absorbance was measured by microplate reader (405 nm).

Compound	EC50
CCCCOc1nc(N)c2[nH]c(=O)n(Cc3ccc(CCN(C)CC(=O)OC)cc3)c2n1 [Example 20, 2-Butoxy-7,8-dihydro-9-{4-[2-(N-methoxycarbonylmethyl-N-methylamino)ethyl]benzyl}-8-oxoadenine]	18.5 nM
CCCCOc1nc(N)c2[nH]c(=O)n(Cc3ccc(OCCCCN(C)CC(=O)OC)nc3)c2n1 [Example 26]	2.8 nM
CCCCOc1nc(N)c2[nH]c(=O)n(Cc3ccc(CCCN(C)CC(=O)OC)cc3)c2n1 [Example 21, 2-Butoxy-7,8-dihydro-9-{4-[3-(N-methoxycarbonylmethyl-N-methylamino)propyl]benzyl}-8-oxoadenine]	6.8 nM
CCCCOc1nc(N)c2[nH]c(=O)n(Cc3ccc(OCCCN(C)CC(=O)OC)cc3)c2n1 [Example 4, 2-butoxy-7,8-dihydro-9-[4-{3-[(N-methyl-N-methoxycarbonylmethyl)amino]propoxy}benzyl]-8-oxoadenine]	7.8 nM
CCCCOc1nc(N)c2[nH]c(=O)n(Cc3ccc(CCN4CCC(C(=O)OC)CC4)cc3)c2n1 [Example 18, 2-Butoxy-7,8-dihydro-9-{4-[2-(4-methoxycarbonyl-piperidin-1-yl)ethyl]benzyl}-8-oxoadenine]	2.2 nM
CCCCOc1nc(N)c2[nH]c(=O)n(Cc3ccc(OCCCCN4CCC(C(=O)OCCCCN(C)C)CC4)cc3)c2n1 [Example 3, 2-butoxy-7,8-dihydro-9-(4-[4-{4-[4-(N,N-dimethylamino)butoxycarbonyl]piperidin-1-yl}butoxy]benzyl)-8-oxoadenine]	7.8 nM
CCCCOc1nc(N)c2[nH]c(=O)n(Cc3ccc(CN(C)CC(=O)OC)cc3OC)c2n1 [Example 16, 2-Butoxy-7,8-dihydro-9-[2-methoxy-4-(N-methoxycarbonylmethyl-N-methylaminomethyl)benzyl]-8-oxoadenine]	15.6 nM
CCCCOc1nc(N)c2[nH]c(=O)n(Cc3ccc(OCC4CCN(CC(=O)OCCCCN(C)C)CC4)cc3)c2n1 [Example 7, 2-Butoxy-7,8-dihydro-9-[4-{1-[4-(N,N-dimethylamino)-butoxycarbonylmethyl]piperidin-4-ylmethyloxy}benzyl]-8-oxoadenine]	5.1 nM
CCCCOc1nc(N)c2[nH]c(=O)n(Cc3ccc(OCC4CCN(CC(=O)OC)CC4)cc3)c2n1 [Example 5, 2-butoxy-7,8-dihydro-9-{4-[1-(methoxycarbonylmethyl)piperidin-4-ylmethyloxy]benzyl}-8-oxoadenine]	3.6 nM
CCCCOc1nc(N)c2[nH]c(=O)n(Cc3ccc(CN(C)CC(=O)OCCCCN(C)C)cc3OC)c2n1 [Example 23, 2-Butoxy-7,8-dihydro-9-{4-[N-(4-dimethylaminobutoxy-carbonylmethyl)-N-methylaminomethyl]-2-methoxybenzyl}-8-oxoadenine]	15.7 nM
CCCCOc1nc(N)c2[nH]c(=O)n(Cc3ccc(CN(C)CC(=O)OC)cc3)c2n1 [Example 9, 2-Butoxy-7,8-dihydro-9-[4-(N-methoxycarbonylmethyl-N-methylaminomethyl)benzyl]-8-oxoadenine]	8.8 nM
CCCCOc1nc(N)c2[nH]c(=O)n(Cc3ccc(OCCCCN4CCC(C(=O)OC)CC4)nc3)c2n1 [Example 24, 2-butoxy-7,8-dihydro-9-{6-[4-(4-methoxylcarbonylpiperidin-1-yl)butoxy]pyridin-3-ylmethyl}-8-oxoadenine]	< 1 nM
CCCCOc1nc(N)c2[nH]c(=O)n(Cc3ccc(OCCCCN(C)CC(=O)OCCCCN(C)C)nc3)c2n1 [Example 28, 2-Butoxy-7,8-dihydro-9-[6-(4-{N′-methyl-N′-[4-(N,N-dimethylamino)butoxycarbonylmethyl]}aminobutoxy)pyridin-3-ylmethyl]-8-oxoadenine]	2 nM
CCCCOc1nc(N)c2[nH]c(=O)n(Cc3ccc(OCCCCN4CCC(C(=O)OC)CC4)cc3)c2n1 [Example 1, 2-Butoxy-7,8-dihydro-9-[4-{4-[4-(methoxycarbonyl)-piperidin-1-yl]butoxy}benzyl]-8-oxoadenine]	5.7 nM
COCCOc1nc(N)c2[nH]c(=O)n(Cc3ccc(CN(C)CC(=O)OC)cc3)c2n1 [Example 12, 7,8-Dihydro-9-[4-(N-methoxycarbonylmethyl-N-methylaminomethyl)benzyl]-2-(2-methoxyethoxy)-8-oxoadenine]	252 nM
